From ChEMBL document CHEMBL4020810, “Janus-Associated Kinase 1 (JAK1) Inhibitors as Potential Treatment for Immune Disorders” (ACS Med Chem Lett, 2017)

Assays:
[1] = target: T1, Tyrosine-protein kinase JAK3 (Homo sapiens, UniProt P52333); experiment: Inhibition of N-terminal GST fused recombinant JAK3 (781 to 1124 amino acids) (unknown origin) expressed in insect cells using ATP and peptide substrate (5FAM-GEEPLYWSFPAKKK-NH2
T1 sequence (P52333 whole entry): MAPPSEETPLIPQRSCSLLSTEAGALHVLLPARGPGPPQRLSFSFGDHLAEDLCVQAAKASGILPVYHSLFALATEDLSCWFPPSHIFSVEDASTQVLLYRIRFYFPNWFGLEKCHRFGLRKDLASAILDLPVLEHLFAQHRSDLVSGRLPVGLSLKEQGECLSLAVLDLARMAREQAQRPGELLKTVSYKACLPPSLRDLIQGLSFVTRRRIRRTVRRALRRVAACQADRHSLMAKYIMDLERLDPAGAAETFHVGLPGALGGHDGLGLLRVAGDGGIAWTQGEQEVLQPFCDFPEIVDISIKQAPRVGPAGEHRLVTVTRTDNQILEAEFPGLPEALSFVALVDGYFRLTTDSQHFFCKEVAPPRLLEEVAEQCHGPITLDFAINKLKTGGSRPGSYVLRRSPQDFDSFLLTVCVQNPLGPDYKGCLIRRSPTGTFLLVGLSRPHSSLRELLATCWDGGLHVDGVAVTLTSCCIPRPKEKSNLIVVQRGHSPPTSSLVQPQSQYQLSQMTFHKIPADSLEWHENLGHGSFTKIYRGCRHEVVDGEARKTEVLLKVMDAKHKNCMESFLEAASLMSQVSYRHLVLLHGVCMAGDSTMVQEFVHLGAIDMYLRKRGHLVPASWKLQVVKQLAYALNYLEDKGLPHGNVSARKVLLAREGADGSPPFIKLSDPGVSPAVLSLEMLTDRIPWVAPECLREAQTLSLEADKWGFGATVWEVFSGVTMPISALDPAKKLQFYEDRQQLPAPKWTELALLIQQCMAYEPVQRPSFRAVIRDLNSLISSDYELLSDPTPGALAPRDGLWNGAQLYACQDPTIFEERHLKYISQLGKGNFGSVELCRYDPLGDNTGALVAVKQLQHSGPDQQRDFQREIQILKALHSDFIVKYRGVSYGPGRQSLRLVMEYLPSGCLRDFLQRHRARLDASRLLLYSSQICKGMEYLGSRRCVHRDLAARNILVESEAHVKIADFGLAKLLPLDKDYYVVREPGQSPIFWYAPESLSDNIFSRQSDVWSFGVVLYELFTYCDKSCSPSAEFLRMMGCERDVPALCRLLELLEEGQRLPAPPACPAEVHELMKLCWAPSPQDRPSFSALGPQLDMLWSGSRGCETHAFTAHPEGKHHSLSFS

[2] = target: T2, Tyrosine-protein kinase JAK1 (Homo sapiens, UniProt P23458); experiment: Inhibition of JAK1 in human NCI-H1975 cells assessed as reduction in STAT3 phosphorylation incubated for 2 hrs; type: cell-based
[3] = target: T2, Tyrosine-protein kinase JAK1; experiment: Inhibition of N-terminal GST fused human recombinant JAK1 (866 to 1154 amino acids) expressed in insect cells using ATP and peptide substrate (FITC-C6-KKHTDDGYMPMSPGVA-NH2

T2 sequence (P23458 whole entry, the tested form may be a part): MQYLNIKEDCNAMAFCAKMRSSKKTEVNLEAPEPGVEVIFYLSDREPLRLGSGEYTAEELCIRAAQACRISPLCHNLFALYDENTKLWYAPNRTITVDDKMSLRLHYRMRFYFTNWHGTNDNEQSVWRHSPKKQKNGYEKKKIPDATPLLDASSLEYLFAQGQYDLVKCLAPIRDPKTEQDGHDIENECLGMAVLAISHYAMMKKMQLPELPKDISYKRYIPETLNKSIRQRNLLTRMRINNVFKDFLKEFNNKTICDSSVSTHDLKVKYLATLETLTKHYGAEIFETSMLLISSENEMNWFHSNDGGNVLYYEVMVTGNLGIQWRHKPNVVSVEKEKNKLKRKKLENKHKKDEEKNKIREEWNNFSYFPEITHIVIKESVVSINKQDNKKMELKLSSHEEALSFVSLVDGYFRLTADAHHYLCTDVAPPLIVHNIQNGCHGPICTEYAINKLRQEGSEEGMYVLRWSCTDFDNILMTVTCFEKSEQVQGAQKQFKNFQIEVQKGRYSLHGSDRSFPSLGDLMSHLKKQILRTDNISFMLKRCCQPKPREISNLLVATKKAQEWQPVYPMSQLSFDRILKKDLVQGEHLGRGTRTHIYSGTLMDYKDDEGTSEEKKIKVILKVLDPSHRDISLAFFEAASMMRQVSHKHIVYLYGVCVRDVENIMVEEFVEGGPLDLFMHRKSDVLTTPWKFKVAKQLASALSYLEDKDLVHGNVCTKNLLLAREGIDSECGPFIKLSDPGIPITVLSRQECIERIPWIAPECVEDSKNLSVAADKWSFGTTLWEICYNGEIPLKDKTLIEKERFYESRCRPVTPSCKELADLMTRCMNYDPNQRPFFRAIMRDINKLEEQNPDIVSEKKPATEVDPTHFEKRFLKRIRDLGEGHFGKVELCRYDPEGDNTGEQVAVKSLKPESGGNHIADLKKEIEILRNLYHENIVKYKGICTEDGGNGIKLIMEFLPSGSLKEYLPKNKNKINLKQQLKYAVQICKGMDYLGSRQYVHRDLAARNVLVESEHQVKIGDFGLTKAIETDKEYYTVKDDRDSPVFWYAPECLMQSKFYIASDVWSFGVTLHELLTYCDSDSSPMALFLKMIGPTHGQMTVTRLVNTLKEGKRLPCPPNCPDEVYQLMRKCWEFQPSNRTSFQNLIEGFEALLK

IC50 [1]	IC50 [2]	IC50 [3]	Compound
> 30000 nM	56.6 nM	< 3 nM	COC[C@H](C(=O)Nc1cccc2c(-c3nc(Nc4cn(C)nc4C)ncc3F)c[nH]c12)N1CCN(C)CC1
–	57.9 nM	–	COc1nn(C)cc1Nc1ncc(Cl)c(-c2c[nH]c3c(NC(=O)[C@@H](C)N4CCN(C)CC4)cccc23)n1
–	> 3000 nM	–	CCOc1nn(C)cc1Nc1ncc(F)c(-c2c[nH]c3c(NC(=O)[C@H](C)N4CCN(C)C[C@@H]4C)cccc23)n1
> 30000 nM	75.1 nM	< 4 nM	CC[C@H](C(=O)Nc1cccc2c(-c3nc(Nc4cn(C)nc4C)ncc3F)c[nH]c12)N1CCN(C)CC1
> 30000 nM	104 nM	< 6 nM	CCOc1nn(C)cc1Nc1ncc(C)c(-c2c[nH]c3c(NC(=O)[C@@H](CC)N4CCN(C)CC4)cccc23)n1
–	643 nM	–	COc1nn(C)cc1Nc1nccc(-c2c[nH]c3c(NC(=O)[C@@H](C)N4CCN(C)C[C@@H]4C)cccc23)n1
